Experimental data taken from PubChem BioAssay (NCI).
Several values for one entry are separate records, joined by “and”; a condition that tells them apart may be missing. Equal values may be shown once.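 Five concentrations, 48 hours, 96-well plates. GI50 = concentration required for 50% inhibition of growth. TGI: concentration producing complete growth inhibition.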

Key:
Test in all cases: DTP human tumour cell line panel, 48 h
A498 renal = tested on: A498 renal
CAKI-1 renal = tested on: CAKI-1 renal
HCT-15 colon = tested on: HCT-15 colon
HL-60(TB) leukemia = tested on: HL-60(TB) leukemia
HOP-62 NSCLC = tested on: HOP-62 NSCLC
NCI-H226 lung = tested on: NCI-H226 lung
SF-295 CNS = tested on: SF-295 CNS
SK-MEL-28 melanoma = tested on: SK-MEL-28 melanoma
SW-620 colon = tested on: SW-620 colon
TK-10 renal = tested on: TK-10 renal

Row | Compound | GI50 (A498 renal) | TGI (A498 renal) | GI50 (CAKI-1 renal) | TGI (CAKI-1 renal) | GI50 (HCT-15 colon) | TGI (HCT-15 colon) | GI50 (HL-60(TB) leukemia) | TGI (HL-60(TB) leukemia) | GI50 (HOP-62 NSCLC) | TGI (HOP-62 NSCLC) | GI50 (NCI-H226 lung) | TGI (NCI-H226 lung) | GI50 (SF-295 CNS) | TGI (SF-295 CNS) | GI50 (SK-MEL-28 melanoma) | TGI (SK-MEL-28 melanoma) | GI50 (SW-620 colon) | TGI (SW-620 colon) | GI50 (TK-10 renal) | TGI (TK-10 renal)
1 | COc1ccc(-c2nocc2-c2cc(OC)c(OC)c(OC)c2)cc1 | 0.0441 µM | 2.9 µM | 0.236 µM | > 100 µM | 0.0447 µM | > 100 µM | 0.0387 µM | 0.886 µM | 0.138 µM | > 100 µM | 14.9 µM | 56.1 µM | 0.0475 µM | 16.9 µM | 6.9 µM | > 89.9 µM | 0.0466 µM | > 100 µM | 0.93 µM | 62.7 µM
2 | CC(C)[C@@H]1CC[C@@H]2[C@@H]1[C@H](OC(=O)/C=C/c1ccccc1)[C@]1(C(C)C)C[C@@H](OC(=O)CO)[C@@]2(C)O1 | 0.00806 µM | 0.0288 µM | 0.133 µM | 6.73 µM | 4.72 µM | 10 µM | 8.07 µM | 18.4 µM | 6.45 µM | 14.5 µM | 5.27 µM | 10.9 µM | 5.07 µM | 9.56 µM | 4.89 µM | 9.87 µM | 6.26 µM | 12.9 µM | 6.46 µM | 15.4 µM
3 | CC(C)CC(=O)NS(=O)(=O)c1ccccc1 | – | > 100 µM | – | > 100 µM | – | > 100 µM | – | > 100 µM | – | > 100 µM | – | > 100 µM | – | > 100 µM | – | > 100 µM | – | > 100 µM | – | > 100 µM
4 | CC/C=C\C/C=C\C[C@H]1C/C=C2/C(=O)C=C[C@H]2C/C=C\CCC(=O)O1 | 4.07 µM | 13.3 µM | 3.13 µM | 8.58 µM | 2.23 µM | 6 µM | 3.55 µM | 12.2 µM | 3.94 µM | 10.6 µM | 2.78 µM | 8.54 µM | 3.01 µM | 9.29 µM | 3.12 µM | 8.01 µM | 2.11 µM | 5.52 µM | 4.72 µM | 12.9 µM
5 | C=C1N(C)c2ccc(Cl)cc2C1(C)C | 11 µM | 43.6 µM | 19.2 µM | 68.5 µM | 29.1 µM | > 100 µM | 2.33 µM | 8.85 µM | 11.2 µM | 72.2 µM | 16.4 µM | > 100 µM | 4.17 µM | 38.5 µM | 19.7 µM | > 100 µM | 5.8 µM | > 100 µM | 14.7 µM | 69.2 µM
6 | S=C(N/N=C(/c1ccccc1)c1ccccn1)Nc1cccc(Cl)c1 | 0.195 µM | 1.72 µM and 6.29 µM | 0.832 µM | 8.78 µM and 6.33 µM | 0.142 µM | 5.06 µM | 0.0152 µM | 0.162 µM | 2.26 µM | 4.18 µM and 17.7 µM | 0.219 µM | 1.64 µM and 4.2 µM | 0.968 µM | 5.36 µM and 5.17 µM | 2.09 µM | 7.69 µM and 6.18 µM | 0.0444 µM | 2.88 µM and 5.77 µM | 0.0277 µM | 2.41 µM and 6 µM
7 | COc1ccc(/C=C/C(=O)c2ccc(Nc3ccnc4cc(Cl)ccc34)cc2)cc1 | > 52.3 µM | > 100 µM | > 100 µM | > 100 µM | > 100 µM | > 100 µM | – | > 35 µM | > 100 µM | > 100 µM | > 100 µM | > 100 µM | > 100 µM | > 100 µM | > 100 µM | > 100 µM | > 100 µM | > 100 µM | > 100 µM | > 100 µM
8 | COc1ccc(-c2coc3cc(OC)cc(O)c3c2=O)cc1 | – | 89.1 µM | – | > 100 µM | – | > 100 µM | – | > 100 µM | – | > 100 µM | – | > 100 µM | – | > 100 µM | – | > 100 µM | – | > 100 µM | – | 84.4 µM
9 | O=c1cccc(C#CC#C/C=C/CO)o1 | 7.57 µM | 22.7 µM | 1.91 µM | 3.6 µM | 1.98 µM | 5.15 µM | 3.17 µM | > 100 µM | 2.08 µM | 4.14 µM | 1.31 µM | 7.68 µM | 5.84 µM | 18.8 µM | 2.75 µM | 10.9 µM | 3.3 µM | > 24.9 µM | 2.21 µM | 4.66 µM
10 | CCc1ccc(Nc2cc(C)nc3nc(C)nn23)cc1 | 0.533 µM | 78.7 µM | 40.1 µM | > 100 µM | 32.8 µM | > 100 µM | > 100 µM | > 100 µM | > 100 µM | > 100 µM | 85 µM | > 100 µM | 78.2 µM | > 100 µM | 48.8 µM | > 100 µM | > 100 µM | > 100 µM | 61.7 µM | > 100 µM
11 | C[C@]12CC[C@H]3[C@@H](C[C@@H]4N=C(c5ccc(O)cc5)S[C@@]45C[C@H](O)CC[C@]35C)[C@@H]1CC[C@@H]2O | 3.51 µM | 21.3 µM | 4.12 µM | > 100 µM | 2.43 µM | 20.7 µM | 4.09 µM | > 100 µM | 5.26 µM | 50.5 µM | 27.4 µM | > 100 µM | 0.413 µM | 2.03 µM | 3.05 µM | 66 µM | 8.4 µM | > 100 µM | > 100 µM | > 100 µM
12 | O=C(Nc1ccc(Br)cc1F)c1cc(Br)ccc1O | 0.246 µM | 1.12 µM | 0.456 µM | 4.11 µM | 0.731 µM | 7.32 µM | 0.59 µM | 3.59 µM | 1.45 µM | 6.36 µM | 0.688 µM | 7.76 µM | 1.58 µM | 3.56 µM | 0.4 µM | 2.13 µM | 1.14 µM | 7.42 µM | 3.12 µM | 12.3 µM
13 | O=C(/C=C/c1cccnc1)c1ccccc1O | 15.2 µM | 31.4 µM | 17.3 µM | 42.4 µM | 15.6 µM | 41 µM | 18.1 µM | 43 µM | 17.5 µM | 45.5 µM | 20 µM | 51.7 µM | 16.6 µM | 41.7 µM | 24.1 µM | 72.3 µM | 22.5 µM | 63.2 µM | 27.6 µM | > 100 µM
14 | COc1ccc(CC2C3=C(CCCC3)CCN2C)cc1 (centres undefined) | – | > 100 µM | – | > 100 µM | – | > 100 µM | – | > 100 µM | – | > 100 µM | – | > 100 µM | – | > 100 µM | – | > 100 µM | – | > 100 µM | – | > 100 µM
